Patent US9113629B2, “4-amino-6-(4-substituted-phenyl)-picolinates and 6-amino-2-(4-substituted-phenyl)-pyrimidine-4-carboxylates and their use as herbicides” (DOW AGROSCIENCES LLC, priority 2013, dated 2015)

How the values were obtained:
[1] = Post-emergent Test III, herbicidal activity in wheat and barley; assay type: in vivo, Lolium multiflorum, Lolium rigidum; details: Lolium multiflorum, post-emergence, 504 h, read-out: Visual Growth Reduction (%) 21 Days After Application LOLSS; for pest or weed control at 35 g/ha: 35 g ai/ha; for pest or weed control at 70 g/ha: 70 g ai/ha; for pest or weed control at 140 g/ha: 140 g ai/ha
Description: (§1) Post-emergent Test III. Seeds of the desired test plant species were planted in Sun Gro MetroMix® 306 planting mixture, which typically has a pH of 6.0 to 6.8 and an organic matter content of about 30 percent, in plastic pots with a surface area of 103.2 square centimeters (cm^2). When required to ensure good germination and healthy plants, a fungicide treatment and/or other chemical or physical treatment was applied. The plants were grown for 7-36 days (d) in a greenhouse with an approximate 14 hour (h) photoperiod which was maintained at about 18° C. during the day and 17° C. during the night. Nutrients and water were added on a regular basis and supplemental lighting was provided with overhead metal halide 1000-Watt lamps as necessary. The plants were employed for testing when they reached the second or third true leaf stage.
(§2) A weighed amount, determined by the highest rate to be tested, of each test compound was placed in a 25 mL glass vial and was dissolved in 4 mL of a 97:3 v/v mixture of acetone and DMSO to obtain concentrated stock solutions. […] The concentrated stock solutions obtained were diluted with 20 mL of an aqueous mixture containing acetone, water, isopropyl alcohol, DMSO, Agri-Dex crop oil concentrate, and X-77 surfactant in a 48:39:10:1.5:1.5:0.02 v/v ratio to obtain spray solutions containing the highest application rates. Additional application rates were obtained by serial dilution of 12 mL of the high rate solution into a solution containing 2 mL of 97:3 v/v mixture of acetone and DMSO and 10 mL of an aqueous mixture containing acetone, water, isopropyl alcohol, DMSO, Agri-Dex crop oil concentrate, and X-77 surfactant in a 48:39:10:1.5:1.5:0.02 v/v ratio to obtain ½×, ¼×, ⅛× and 1/16× rates of the high rate. Compound requirements are based upon a 12 mL application volume at a rate of 187 liters per hectare (L/ha). Formulated compounds were applied to the plant material with an overhead Mandel track sprayer equipped with 8002E nozzles calibrated to deliver 187 L/ha over an application area of 0.503 square meters at a spray height of 18 inches (43 cm) above the average plant canopy height. Control plants were sprayed in the same manner with the solvent blank.
(§3) The treated plants and control plants were placed in a greenhouse as described above and watered by subirrigation to prevent wash-off of the test compounds. After 21 d, the condition of the test plants as compared with that of the untreated plants was determined visually and scored on a scale of 0 to 100 percent where 0 corresponds to no injury and 100 corresponds to complete kill.
(§4) By applying the well-accepted probit analysis as described by J. Berkson in Journal of the American Statistical Society, 48, 565 (1953) and by D. Finney in “Probit Analysis” Cambridge University Press (1952), herbicidal injury of a specific compound at various rates can be used to calculate GR20, GR50, GR80 and GR90 values, which are defined as growth reduction factors that correspond to the effective dose of herbicide required to provide plant growth reduction (GR) of 20 percent, 50 percent, 80 percent and 90 percent, respectively. Probit analysis was applied to data collected from multiple dose rates of individual compounds utilizing the procedures explained in the following examples. The analysis of those dose rates is captured in the following tables.

[2] = test system: APESV: bentgrass (Apera spica-venti); assay: as above; assay type: in vivo; details: for pest or weed control at 35 g/ha / pest or weed control at 70 g/ha / pest or weed control at 140 g/ha: Apera spica-venti, post-emergence, 504 h, read-out: Visual Growth Reduction (%) 21 Days After Application APESV; for pest or weed control at 35 g/ha: 35 g ai/ha; for pest or weed control at 70 g/ha: 70 g ai/ha; for GR50 APESV / GR80 APESV: probit analysis, 21 days after application; for GR50 APESV: dose for growth reduction of 50 percent; for GR80 APESV: dose for growth reduction of 80 percent; for pest or weed control at 140 g/ha: 140 g ai/ha
Description: as §1, §2, §3, §4

[3] = test system: KCHSC: kochia (Kochia scoparia); assay: as above; assay type: in vivo; details: for pest or weed control at 35 g/ha / pest or weed control at 70 g/ha / pest or weed control at 140 g/ha: Bassia scoparia, post-emergence, 504 h, read-out: Visual Growth Reduction (%) 21 Days After Application KCHSC; for pest or weed control at 35 g/ha: 35 g ai/ha; for pest or weed control at 70 g/ha: 70 g ai/ha; for GR50 KCHSC / GR80 KCHSC: probit analysis, 21 days after application; for GR50 KCHSC: dose for growth reduction of 50 percent; for GR80 KCHSC: dose for growth reduction of 80 percent; for pest or weed control at 140 g/ha: 140 g ai/ha
Description: as §1, §2, §3, §4

[4] = test system: LOLSS: ryegrass including, Italian ryegrass (Lolium multiflorum), rigid ryegrass (Lolium rigidum), annual ryegrass (Lolium multiflorum subsp. Gaudini); assay: as above; assay type: in vivo; details: probit analysis, 21 days after application; for GR50 LOLSS: dose for growth reduction of 50 percent; for GR80 LOLSS: dose for growth reduction of 80 percent
Description: as §1, §2, §3, §4

[5] = test system: MATSS: scented mayweed (Matricaria chamomilla), pineappleweed (Matricaria matricarioides); assay: as above; assay type: in vivo; details: for pest or weed control at 35 g/ha / pest or weed control at 70 g/ha / pest or weed control at 140 g/ha: Matricaria chamomilla, post-emergence, 504 h, read-out: Visual Growth Reduction (%) 21 Days After Application MATSS; for pest or weed control at 35 g/ha: 35 g ai/ha; for pest or weed control at 70 g/ha: 70 g ai/ha; for GR50 MATSS / GR80 MATSS: probit analysis, 21 days after application; for GR50 MATSS: dose for growth reduction of 50 percent; for GR80 MATSS: dose for growth reduction of 80 percent; for pest or weed control at 140 g/ha: 140 g ai/ha
Description: as §1, §2, §3, §4

[6] = test system: HORSS: barley, including spring and winter (Hordeum vulgare); assay: as above; assay type: in vivo
Description: as §1, §2, §3, §4

[7] = test system: SETVI: green foxtail (Setaria viridis); assay: as above; assay type: in vivo
Description: as §1, §2, §3, §4

[8] = test system: TRZSS: wheat, including spring and winter (Triticum aestivum); assay: as above; assay type: in vivo
Description: as §1, §2, §3, §4

[9] = probit analysis, dose for growth reduction of 20 percent, 21 days after application, crop

Row | Structure (SMILES) | pest or weed control at 35 g/ha [1] [%] | pest or weed control at 70 g/ha [1] [%] | pest or weed control at 35 g/ha [2] [%] | pest or weed control at 70 g/ha [2] [%] | GR50 APESV [2] [g ai/ha] | GR80 APESV [2] [g ai/ha] | pest or weed control at 35 g/ha [3] [%] | pest or weed control at 70 g/ha [3] [%] | GR50 KCHSC [3] [g ai/ha] | GR80 KCHSC [3] [g ai/ha] | GR50 LOLSS [4] [g ai/ha] | GR80 LOLSS [4] [g ai/ha] | pest or weed control at 35 g/ha [5] [%] | pest or weed control at 70 g/ha [5] [%] | GR50 MATSS [5] [g ai/ha] | GR80 MATSS [5] [g ai/ha] | pest or weed control at 140 g/ha [1] [%] | pest or weed control at 140 g/ha [2] [%] | pest or weed control at 140 g/ha [3] [%] | pest or weed control at 140 g/ha [5] [%] | also measured
1 | COC(=O)c1nc(-c2ccc(Br)c(F)c2F)c(F)c(N)c1Cl [Compound 109, methyl 4-amino-6-(4-bromo-2,3-difluorophenyl)-3-chloro-5-fluoropicolinate] | 45 to 59 | 45 to 59 | 85 to 94 | 85 to 94 | 1 | 6 | 85 to 94 | 85 to 94 | 3 | 19 | 34 | >140 | 30 to 44 | 45 to 59 | 72 | >140 |  |  |  |  | 
2 | COC(=O)c1nc(-c2ccc(OC(F)F)cc2)c(F)c(N)c1Cl [Compound 85] | 0 to 29 | 0 to 29 | 0 to 29 | 0 to 29 | >140 | >140 | 0 to 29 | 0 to 29 | >140 | >140 |  |  | 0 to 29 | 0 to 29 | 88 | >140 | 0 to 29 | 0 to 29 | 0 to 29 | 0 to 29 | pest or weed control at 35 g/ha ([6]; Hordeum vulgare, post-emergence, 504 h, 35 g ai/ha, read-out: Visual Growth Reduction (%) 21 Days After Application HORSS): 0 to 29%; pest or weed control at 70 g/ha ([6]; Hordeum vulgare, post-emergence, 504 h, 70 g ai/ha, read-out: Visual Growth Reduction (%) 21 Days After Application HORSS): 30 to 44%; pest or weed control at 140 g/ha ([6]; Hordeum vulgare, post-emergence, 504 h, 140 g ai/ha, read-out: Visual Growth Reduction (%) 21 Days After Application HORSS): 60 to 74%; GR20 HORSS [6, 9]: 33 g ai/ha; pest or weed control at 35 g/ha ([7]; Setaria viridis, post-emergence, 504 h, 35 g ai/ha, read-out: Visual Growth Reduction (%) 21 Days After Application SETVI): 0 to 29%; pest or weed control at 70 g/ha ([7]; Setaria viridis, post-emergence, 504 h, 70 g ai/ha, read-out: Visual Growth Reduction (%) 21 Days After Application SETVI): 0 to 29%; pest or weed control at 140 g/ha ([7]; Setaria viridis, post-emergence, 504 h, 140 g ai/ha, read-out: Visual Growth Reduction (%) 21 Days After Application SETVI): 0 to 29%; GR50 SETVI ([7]; probit analysis, dose for growth reduction of 50 percent, 21 days after application): >140 g ai/ha; GR80 SETVI ([7]; probit analysis, dose for growth reduction of 80 percent, 21 days after application): >140 g ai/ha; pest or weed control at 35 g/ha ([8]; Triticum aestivum, post-emergence, 504 h, 35 g ai/ha, read-out: Visual Growth Reduction (%) 21 Days After Application TRZSS): 60 to 74%; pest or weed control at 70 g/ha ([8]; Triticum aestivum, post-emergence, 504 h, 70 g ai/ha, read-out: Visual Growth Reduction (%) 21 Days After Application TRZSS): 60 to 74%; pest or weed control at 140 g/ha ([8]; Triticum aestivum, post-emergence, 504 h, 140 g ai/ha, read-out: Visual Growth Reduction (%) 21 Days After Application TRZSS): 60 to 74%; GR20 TRZSS [8, 9]: 1 g ai/ha
3 | C=Cc1c(C(=O)O)nc(-c2ccc(Cl)c(F)c2)c(F)c1N [Compound 214] | 30 to 44 | 45 to 59 | 0 to 29 | 30 to 44 | 110 | >140 | 75 to 84 | 85 to 94 | 7 | 52 | 59 | >140 | 75 to 84 | 85 to 94 | 4 | 41 | 85 to 94 | 45 to 59 | 95 to 100 | 85 to 94 | 
4 | COC(=O)c1nc(-c2ccc(C(F)F)cc2)c(F)c(N)c1Cl [Compound 209] | 0 to 29 | 30 to 44 | 0 to 29 | 0 to 29 | >140 | >140 | 60 to 74 | 85 to 94 | 12 | 42 | 93 | >140 | 0 to 29 | 0 to 29 | >140 | >140 |  |  |  |  | 
5 | Nc1c(F)c(-c2ccc(Br)c(F)c2F)nc(C(=O)O)c1Cl [Compound 147] | 30 to 44 | 45 to 59 | 85 to 94 | 85 to 94 | 5 | 16 | 85 to 94 | 95 to 100 | 4 | 19 | 71 | >140 | 95 to 100 | 95 to 100 | 6 | 14 | 60 to 74 | 85 to 94 | 85 to 94 | 95 to 100 | 
